# Data: patent US8653237B2, “Peptide analogues” (MannKind Corporation, priority 2005, dated 2014)
# Square brackets hold non-standard residues; d marks the D form. Peptide text beside a SMILES is read from it. Cha = N[C@@H](CC1CCCCC1)C(=O)O
# Legend:
# [1] = tested on: T cell line specific for the native epitope PRAME425-433; assay: Cross-reactivity: IFN-gamma secretion from T cell line specific for native PRAME425-433; format: cell-based, HHD transgenic mice; conditions: analog peptide at approximately 0.304 (so in the source); normalized to native peptide
# Procedure: At 7 days after the last boost, the mice were sacrificed and a suspension of splenocytes prepared at 5×10^6 […] cells/ml in complete HL-1 medium. Cells were incubated with different concentrations of peptide for 48 hours in flat-bottomed 96-well plates (200 μl/well) and for an additional 24 hours with rIL-2 at 10 U/ml added to the wells. The supernatant was harvested and the concentration of IFN-gamma assessed by standard methods such as ELISA.
# The analogs listed in FIGS. 26-28 were tested for various properties such as improved affinity and stability of binding, cross-reactivity with the native epitope, and immunogenicity as follows in Examples 40-48. […] The observed affinities of the analogs are reported as % binding (compared to the positive control) and ED50, and stability of binding as half time of dissociation. Cross reactivity with the native epitope was assessed by using the analog peptides to stimulate IFN-gamma secretion from a T cell line specific for the native epitope, essentially as described in Example 6. The data shown in FIGS. 26-28 were generated by stimulating with analog peptide at approximately 0.304. […] In some cases, the reported values are the average of two determinations.
# HLA-A*0201 [2] = target: T1, HLA-A*0201 (Homo sapiens, UniProt P04439, D140Y/D185E/D98H/E176V/E277Q/G131W/G231S/I119V/I121R/I166T/I218V/L300P/L318F/N151K/N90K/P208A/P217A/Q86G/Q94H/R138H/R169H/T345S); assay: iTopia affinity assay (ED50); format: binding
# Description: Avidin-coated microtiter plates containing class I monomer loaded with a so-called placeholder peptide were used to evaluate peptide binding, affinity and off-rate. The monomer-coated plates were supplied as part of the iTopia Epitope Discovery System Kit (Beckman Coulter, Inc., San Diego, Calif., USA). Assay buffers, anti-MHC-FITC mAb and beta2-microglobulin and control peptides were also supplied with the kits.
# Plates were read on the fluorometer. Sigmoidal dose response curves were generated using Prism software.
# [3] = tested on: T cell lines against natural epitope SSX-241-49; assay: Cross-reactivity and functional avidity: IFN-gamma production by T cell lines raised against natural SSX-2 41-49; format: cell-based, HHD transgenic mice; conditions: T cells raised against native SSX-2 41-49 stimulated with analog, native = 1, lower = more active
# HLA-A*0201 [4] = target: T1, HLA-A*0201; assay: Peptide binding using T2 cells (affinity to HLA-A*0201); set-up: endogenous in cells; host or cells: T2 cells; conditions: peptide concentration giving 50% of the saturation signal on T2 cells
compound,measurement,setting,value
"Lys P1 analog: PRAME425-433 analog with Lys substituted for the Ser at the P1 position (KLLQHLIGL; UniProt P78395 425-433, looked up, variant S425K)","IFN-γ elicited, relative to native peptide",[1],40%
same,Binding affinity (ED50) relative to native peptide (in words),HLA-A*0201 [2],reduced by almost 6-fold
"CC[C@H](C)[C@H](NC(=O)[C@H](CCCCN)NC(=O)[C@H](CCC(=O)O)NC(=O)[C@H](CO)NC(=O)[C@@H](NC(=O)[C@@H](N)Cc1ccccc1)C(C)C)C(=O)N[C@@H](Cc1ccccc1)C(=O)N[C@@H](Cc1ccc(O)cc1)C(=O)N(C)[C@H](C(=O)O)C(C)C [SSX2 41-49 (K41F, A42V, V49MeVal)]",Cross-reactivity and fct avidity (native to analogs),[3],10
CC[C@H](C)[C@H](NC(=O)[C@H](CCCCN)NC(=O)[C@H](CCC(=O)O)NC(=O)[C@H](CO)NC(=O)[C@H](C)NC(=O)[C@@H](N)CC1CCCCC1)C(=O)N[C@@H](Cc1ccccc1)C(=O)N[C@@H](Cc1ccc(O)cc1)C(=O)N[C@H](C(=O)O)C(C)C [SSX2 41-49 (K41(Cha))] (H-[Cha]ASEKIFYV-OH),Half-maximal Binding,HLA-A*0201 [4],N/B
"CC[C@H](C)[C@H](NC(=O)[C@H](CCCCN)NC(=O)[C@H](CCC(=O)O)NC(=O)[C@H](CO)NC(=O)[C@H](Cc1cccc2ccccc12)NC(=O)[C@@H](N)CCCCN)C(=O)N[C@@H](Cc1ccccc1)C(=O)N[C@@H](Cc1ccc(O)cc1)C(=O)N[C@H](C(=O)O)C(C)C [SSX2 41-49 (A42(Nal-1)), KNal-1SEKIFYV]",Half-maximal Binding,HLA-A*0201 [4],N/B
